The values that follow come from patent US9029359B2, “Heteroaryl Btk inhibitors” (Biogen Idec MA, Inc., priority 2009, dated 2015).

This test deals with T1, BTK (Homo sapiens, UniProt Q06187).
T1 construct: purchased Upstate 14-552
Description: In vitro BTK kinase assay: BTK-POLYGAT-LS ASSAY. The conditions noted are these: ATP 10 uM. It is filed as biochemical. In short, it runs like this: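 BTK phosphorylation of polyGAT (100 nM final) with ATP at 10 μM final, 10 mM Tris-HCl pH 7.5 kinase buffer, quenched by EDTA after 30 min. Potency given as IC50.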

Usually IC50 stands for the concentration needed to halve the response being measured.

T1 sequence (Q06187 whole entry): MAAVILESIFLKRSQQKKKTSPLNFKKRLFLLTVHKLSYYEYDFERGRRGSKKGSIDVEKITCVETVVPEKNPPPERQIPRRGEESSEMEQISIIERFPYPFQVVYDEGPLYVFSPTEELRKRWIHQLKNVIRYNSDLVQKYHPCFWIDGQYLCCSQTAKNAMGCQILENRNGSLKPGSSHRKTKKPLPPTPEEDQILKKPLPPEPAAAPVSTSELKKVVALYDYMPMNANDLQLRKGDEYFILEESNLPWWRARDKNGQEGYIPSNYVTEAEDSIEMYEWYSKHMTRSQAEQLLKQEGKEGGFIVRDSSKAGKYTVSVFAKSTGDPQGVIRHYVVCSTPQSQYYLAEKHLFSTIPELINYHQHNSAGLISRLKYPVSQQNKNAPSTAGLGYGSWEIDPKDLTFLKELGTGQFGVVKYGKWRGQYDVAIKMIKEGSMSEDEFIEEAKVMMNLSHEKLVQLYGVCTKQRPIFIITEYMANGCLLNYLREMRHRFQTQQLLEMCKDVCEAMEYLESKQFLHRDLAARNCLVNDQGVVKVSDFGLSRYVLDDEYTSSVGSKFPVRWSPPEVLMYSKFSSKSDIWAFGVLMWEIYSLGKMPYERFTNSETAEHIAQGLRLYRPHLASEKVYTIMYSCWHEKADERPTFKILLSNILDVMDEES

`O=C(N[C@@H]1CCCN(c2ncnc3[nH]ccc23)C1)[C@@H](CC1CC1)Nc1cc(Cl)cc(Cl)c1` [Example 132, (R)—N—((R)-1-(7H-pyrrolo[2,3-d]pyrimidin-4-yl)piperidin-3-yl)-3-cyclopropyl-2-(3,5-dichlorophenylamino)propanamide] displayed an IC50 of 100 to 999 nM.

As for `CC[C@@H](Nc1cc(Cl)cc(Cl)c1)C(=O)N[C@H]1CN(c2ncnc3[nH]ncc23)CC[C@@H]1C` [Example 369], the IC50 was 100 to 999 nM. The figure for `Cc1ccc(NCC(=O)N[C@@H]2CCCN(c3ncnc4[nH]ccc34)C2)c(Cl)c1` [Example 430] is 1000 to 10000 nM; for `O=C(NC1CCCN(c2ncnc3[nH]ccc23)C1)[C@@H](CCCO)Nc1ccccc1` (some centres unmarked) [Example 447] it is 1000 to 10000 nM; for `N#Cc1c(N)ncnc1N1CCC[C@@H](NC(=O)[C@H](Nc2cc(F)cc(Cl)c2)C2CC2)C1` [Example 134, (R)—N—((R)-1-(6-amino-5-cyanopyrimidin-4-yl)piperidin-3-yl)-2-(3-chloro-5-fluorophenylamino)-2-cyclopropylacetamide] it is 1000 to 10000 nM. For the compound `O=C(CNc1cccc([N+](=O)[O-])c1)N[C@@H]1CCCN(c2ncnc3[nH]ccc23)C1` [Example 432], the IC50 lay within 1000 to 10000 nM. In turn, `O=C(CNc1ccccc1OC1CCCC1)N[C@@H]1CCCN(c2ncnc3[nH]ccc23)C1` [Example 222] came in with a 50% inhibitory concentration (IC50) of under 100 nM. Then `COc1ccccc1NCC(=O)N[C@@H]1CCCN(c2ncnc3[nH]ccc23)C1` [Example 309], with 100 to 999 nM. Then `Cc1cccc(NCC(=O)NC2CCCN(c3ncnc4[nH]ccc34)C2)c1` (centres unmarked) [Example 31, (N-(1-(7H-pyrrolo[2,3-d]pyrimidin-4-yl)piperidin-3-yl)-2-(m-tolylamino)acetamide)], with 100 to 999 nM. Regarding `CC(C)Oc1ccccc1NCC(=O)N[C@@H]1CCCN(c2ncnc3[nH]ccc23)C1` [Example 248], the half-maximal inhibitory concentration (IC50) lay within 100 to 999 nM. Then `CC(C)(O)[C@@H](Nc1cc(F)cc(Cl)c1)C(=O)N[C@@H]1CCCN(c2ncnc3[nH]ccc23)C1` [Example 296], with 100 to 999 nM. The figure for `Cc1cc(NCC(=O)N[C@@H]2CCCN(c3ncnc4[nH]ccc34)C2)ccc1Cl` [Example 415] is 1000 to 10000 nM; for `O=C(CNc1ccccc1Oc1ccccc1)N[C@@H]1CCCN(c2ncnc3[nH]ncc23)C1` [Example 204] it is under 100 nM; for `NC(=O)c1c(N)ncnc1N1CCC[C@@H](NC(=O)CNc2cc(Cl)cc(Cl)c2)C1` [Example 326] it is 100 to 999 nM. The compound `O=C(CNc1ccccc1C(=O)N1CCCCC1)N[C@@H]1CCCN(c2ncnc3[nH]ccc23)C1` [Example 253] gave a concentration for half-maximal inhibition (IC50) of 100 to 999 nM. With `CC(C)c1ccccc1NCC(=O)N[C@@H]1CCCN(c2ncnc3[nH]ncc23)C1` [Example 219], the IC50 is under 100 nM. Then `O=C(N[C@@H]1CCCN(c2ncnc3[nH]cc(F)c23)C1)[C@H](Nc1cc(Cl)cc(Cl)c1)C1CC1` [Example 392], with 1000 to 10000 nM; and `O=C(CNc1ccccc1OC1CCCCCC1)N[C@@H]1CCCN(c2ncnc3[nH]ccc23)C1` [Example 251], with under 100 nM; and `CC(=O)Nc1cc(N2CCC[C@@H](NC(=O)CNc3cc(Cl)cc(Cl)c3)C2)ncn1` [Example 141, (R)—N-(1-(6-acetamidopyrimidin-4-yl)piperidin-3-yl)-2-(3,5-dichlorophenylamino)acetamide], with 1000 to 10000 nM.

`C[C@H](O)[C@@H](Nc1cc(F)cc(Cl)c1)C(=O)N[C@@H]1CCCN(c2ncnc3[nH]ncc23)C1` [Example 174] returned an IC50 of under 100 nM. Then `CCc1cccc(NCC(=O)N[C@@H]2CCCN(c3ncnc4[nH]ccc34)C2)c1` [Example 262], with under 100 nM. The figure for `Cc1nc(-c2cccc(NCC(=O)N[C@@H]3CCCN(c4ncnc5[nH]ccc45)C3)c2)cs1` [Example 289] is 100 to 999 nM. The compound `O=C(CNC(c1ccccc1)c1ccccc1)N[C@@H]1CCCN(c2ncnc3[nH]ccc23)C1` [Example 460] displayed a half-inhibitory concentration (IC50) of 1000 to 10000 nM. `O=C(O)CC[C@@H](Nc1ccccc1)C(=O)N[C@@H]1CCCN(c2ncnc3[nH]ccc23)C1` [Example 425] came in with an IC50 of 1000 to 10000 nM. Consider `O=C(CNc1cc(C(F)(F)F)cc(C(F)(F)F)c1)N[C@@H]1CCCN(c2ncnc3[nH]ccc23)C1` [Example 308], for which the 50% inhibitory concentration (IC50) fell in the range of 100 to 999 nM. The figure for `O=C(CNc1cccc(-c2cc[nH]n2)c1)N[C@@H]1CCCN(c2ncnc3[nH]ccc23)C1` [Example 396] is 1000 to 10000 nM; for `O=C(CNc1ccccc1S(=O)(=O)N1CCC(F)(F)CC1)N[C@@H]1CCCN(c2ncnc3[nH]ncc23)C1` [Example 176] it is under 100 nM; for `O=C(CNc1ccc(F)cc1Cl)N[C@@H]1CCCN(c2ncnc3[nH]ccc23)C1` [Example 417] it is 100 to 999 nM. Then `CC(C)(C)C1CCN(S(=O)(=O)c2ccccc2NCC(=O)N[C@@H]2CCCN(c3ncnc4[nH]ccc34)C2)CC1` [Example 265], with under 100 nM; and `O=C(CNc1cc(F)cc(C(F)(F)F)c1)N[C@@H]1CCCN(c2ncnc3[nH]ccc23)C1` [Example 264], with under 100 nM; and `CS(=O)(=O)c1cccc(NCC(=O)NC2CCCN(c3ncnc4[nH]ccc34)C2)c1` (centres unmarked) [Example 28, (N-(1-(7H-pyrrolo[2,3-d]pyrimidin-4-yl)piperidin-3-yl)-2-(3-(methylsulfonyl)phenylamino)acetamide)], with 1000 to 10000 nM.

Take `O=C(CNc1ccccc1N1CCCCC1)N[C@@H]1CCCN(c2ncnc3[nH]ccc23)C1` [Example 290]: the half-maximal inhibitory concentration (IC50) was in the range of 100 to 999 nM. The figure for `O=C(CNc1cccc(-c2nnn[nH]2)c1)N[C@@H]1CCCN(c2ncnc3[nH]ccc23)C1` [Example 400] is 1000 to 10000 nM. The figure for `Cc1ccccc1NCC(=O)N[C@@H]1CCCN(c2ncnc3[nH]ccc23)C1` [Example 268] is 100 to 999 nM; for `N#Cc1ccccc1NCC(=O)N[C@@H]1CCCN(c2ncnc3[nH]ccc23)C1` [Example 433] it is 1000 to 10000 nM. On to `CC(C)Oc1cccc(NCC(=O)NC2CCCN(c3ncnc4[nH]ccc34)C2)c1` (centres unmarked) [Example 50, (N-(1-(7H-pyrrolo[2,3-d]pyrimidin-4-yl)piperidin-3-yl)-2-(3-isopropoxyphenylamino)acetamide)], for which the half-maximal inhibitory concentration (IC50) lay within 1000 to 10000 nM. In turn, `C[C@H](O)[C@@H](Nc1cccc(Cl)c1)C(=O)N[C@@H]1CCCN(c2ncnc3[nH]ccc23)C1` [Example 233] displayed an IC50 of under 100 nM. The figure for `COc1c(Cl)cccc1NCC(=O)NC1CCCN(c2ncnc3[nH]ccc23)C1` (centres unmarked) [Example 53, (N-(1-(7H-pyrrolo[2,3-d]pyrimidin-4-yl)piperidin-3-yl)-2-(3-chloro-2-methoxyphenylamino)acetamide)] is 100 to 999 nM; for `Cc1cc(C)cc(NCC(=O)N[C@@H]2CCCN(c3ncnc4[nH]ccc34)C2)c1` [Example 282] it is 100 to 999 nM; for `O=C(CNc1ccccc1S(=O)(=O)N1CCCCC1)N[C@@H]1CCCN(c2ncnc3[nH]ccc23)C1` [Example 182] it is under 100 nM. The figure for `O=C(CNc1ccc(Cl)cc1Cl)N[C@@H]1CCCN(c2ncnc3[nH]ccc23)C1` [Example 317] is 100 to 999 nM; for `O=C(N[C@@H]1CCCN(c2ncnc3[nH]ncc23)C1)[C@H](Nc1cccc(Cl)c1)C1CC1` [Example 231] it is under 100 nM. Then `O=C(CNc1ccccc1S(=O)(=O)c1ccccc1)N[C@@H]1CCCN(c2ncnc3[nH]ccc23)C1` [Example 173], with under 100 nM.

As to `CC[C@@H](C)[C@@H](Nc1cc(F)cc(Cl)c1)C(=O)N[C@@H]1CCCN(c2ncnc3[nH]ncc23)C1` [Example 180], the IC50 was under 100 nM.

In turn, `COc1cccc(C)c1NCC(=O)N[C@@H]1CCCN(c2ncnc3[nH]ccc23)C1` [Example 452] came in with a 50% inhibitory concentration (IC50) of 1000 to 10000 nM. On to `O=C(CNc1cccc(-n2cccn2)c1)NC1CCCN(c2ncnc3[nH]ccc23)C1` (centres unmarked) [Example 77, (2-(3-(1H-pyrazol-1-yl)phenylamino)-N-(1-(7H-pyrrolo[2,3-d]pyrimidin-4-yl)piperidin-3-yl)acetamide)], for which the concentration for half-maximal inhibition (IC50) was in the range of 100 to 999 nM. On to `Cc1ccc(NCC(=O)N[C@@H]2CCCN(c3ncnc4[nH]ccc34)C2)c(F)c1` [Example 420], for which the half-inhibitory concentration (IC50) was 1000 to 10000 nM. Then `O=C(CNC(=O)c1ccccc1Cl)NC1CCCN(c2ncnc3[nH]ccc23)C1` (centres unmarked) [Example 92, (N-(2-(1-(7H-pyrrolo[2,3-d]pyrimidin-4-yl)piperidin-3-ylamino)-2-oxoethyl)-2-chlorobenzamide)], with 1000 to 10000 nM.

`NS(=O)(=O)c1cccc(NCC(=O)NC2CCCN(c3ncnc4[nH]ccc34)C2)c1` (centres unmarked) [Example 26, (N-(1-(7H-pyrrolo[2,3-d]pyrimidin-4-yl)piperidin-3-yl)-2-(3-sulfamoylphenylamino)acetamide)] showed an IC50 of over 10000 nM. The figure for `O=C(CNc1ccccc1OC1CCCC1)N[C@@H]1CCCN(c2ncnc3[nH]ncc23)C1` [Example 245] is under 100 nM; for `O=C(CNc1cccc(CO)c1)N[C@@H]1CCCN(c2ncnc3[nH]ccc23)C1` [Example 394] it is 1000 to 10000 nM. The figure for `O=C(N[C@@H]1CCCN(c2ncnc3[nH]ccc23)C1)[C@H](Nc1ccccc1)C1CCCCC1` [Example 109, (R)—N—((R)-1-(7H-pyrrolo[2,3-d]pyrimidin-4-yl)piperidin-3-yl)-2-cyclohexyl-2-(phenylamino)acetamide] is 1000 to 10000 nM. Then `O=C(CNc1cccc2cnccc12)NC1CCCN(c2ncnc3[nH]ccc23)C1` (centres unmarked) [Example 333], with 1000 to 10000 nM; and `CCC[C@@H](Nc1cc(F)cc(Cl)c1)C(=O)N[C@@H]1CCCN(c2ncnc3[nH]ccc23)C1` [Example 197], with under 100 nM.

In turn, `CCNc1cc(N2CCC[C@@H](NC(=O)CNc3cc(Cl)cc(Cl)c3)C2)ncn1` [Example 143, (R)-2-(3,5-dichlorophenylamino)-N-(1-(6-(ethylamino)pyrimidin-4-yl)piperidin-3-yl)acetamide] showed a half-inhibitory concentration (IC50) of 1000 to 10000 nM. Then `CC(C)C[C@@H](Nc1ccccc1)C(=O)N[C@@H]1CCCN(c2ncnc3[nH]ccc23)C1` [Example 105, (R)—N—((R)-1-(7H-pyrrolo[2,3-d]pyrimidin-4-yl)piperidin-3-yl)-4-methyl-2-(phenylamino)pentanamide], with 1000 to 10000 nM.
